Reference: patent US10238616B2, “Immunomodulator” (WAKUNAGA PHARMACEUTICAL CO., LTD., priority 2014, dated 2019)

How the values were obtained:
IgA = experiment: Promoting effect of IgA production (in vivo) <1>: IgA in intestinal lavage fluids; set-up: species or system mouse; settings: female C57BL/6N mice, oral administration for five days, compared with water administration group
Protocol: (§1) Animals for the biological activity evaluation were reared as follows. Female C57BL/6N mice for tests were purchased from CLEA Japan, Inc. After the purchase, the mice were acclimated for a week, and then used as the animals for the evaluation test.
(§2) Mouse IgA Quantitation Kit manufactured by Bethyl laboratories, Inc was purchased and the amount of IgA produced was measured. The wash solution or culture supernatant to be measured was placed in a 96-well plate coated with an anti-IgA antibody. After adding various reaction reagents, the absorbance was measured by using a plate reader.
The animals for the evaluation test of (3) above were orally administered with the sample prepared in (1) (b) above for five days, and then sacrificed and the small intestines were removed. Phosphate buffer (5 mL) was passed through the small intestines and the contents of the small intestines and the lavage fluids collected. The collected products were combined and centrifuged, and the amount of IgA in the resulting supernatant was quantified by ELISA.

IL-6 production [1] = experiment: Inhibitory effect on IL-6 production under LPS stimulation (in vitro) <2>; type: cell-based, mouse; settings: spleen lymphocytes, 3 μg/mL Salmonella-derived LPS, 0.3 mM, 24 hours at 37° C.
Protocol: (§3) Cells for the biological activity evaluation were prepared as follows. Female C57BL/6N mice for tests were purchased from CLEA Japan, Inc. After the purchase, the mice were acclimated for a week, and then sacrificed and the spleens were taken out. The excised spleens were crushed and passed through a mesh to collect lymphocytes, which were used as the cells for the evaluation test.
(§4) Mouse IL-6 ELISA Ready-SET-Go! Kit manufactured by eBioscience was purchased and the amount of IL-6 produced was measured. The culture supernatant to be measured was placed in a 96-well plate coated with an anti-IL-6 antibody. After adding various reaction reagents, the absorbance was measured by using a plate reader.
The lymphocytes obtained from the cells for the evaluation test of (2) above were prepared at 5×10^6 cells/mL with a 10% serum-containing medium and inoculated into a 48-well plate at 200 μL each. To these cells, chemically synthesized cis-S-1-propenycysteine and trans-S-1-propenycysteine, SAC, and S-1-propenycysteine (a cis/trans mixture) prepared in Production Example 2 were added at a concentration of 0.3 mM in the presence of 3 μg/mL Salmonella-derived lipopolysaccharides (LPS), followed by culturing at 37° C. for 24 hours. Upon completion of culture, the supernatants were collected and the amount of IL-6 was measured by ELISA.

IgA-producing B cells [2] = experiment: Promoting effect of IgA production (in vivo) <2>: IgA-producing B cells in Peyer's patches; set-up: species or system mouse; settings: female C57BL/6N mice, oral administration for five days, compared with water administration group
Source text: as §1
The animals for the evaluation test of (3) above were orally administered with the sample prepared in (1) (b) above for five days, and then sacrificed. The small intestines were removed, from which Peyer's patches were collected. The Peyer's patches were ground, to which Collagenase D was added to give a final concentration of 1 mg/mL and DNAase I was added to give a final concentration of 20 μg/mL. Treatment was continued for 30 minutes while shaking at 37° C., followed by centrifugation at 1,500 rpm. The resulting supernatant was removed. Then, 2 mL of 5% FBS-containing Hank's Balanced Salt Solution containing 5 mM EDTA was added, followed by treatment for five minutes while shaking at 37° C. Upon completion of treatment, the resultant was passed through a 40 μm mesh to remove tissue pieces and collect lymphocytes. […] Upon completion of treatment, 1×10^4 lymphocytes were analyzed by using a flow cytometer to count the number of IgA-producing B cells which reacted to the anti-mouse CD45 antibody (B220) and the anti-mouse immunoglobulin A antibody.

IL-6 production [3] = experiment: Inhibitory effect on IL-6 production under LPS stimulation (in vitro) <1>; type: cell-based, mouse; settings: spleen lymphocytes, 1 μg/mL Escherichia coli 055-derived LPS, 0.1 mM
Protocol: as §3, §4
(§5) The lymphocytes obtained from the cells for the evaluation test of (2) above were prepared at 1×10^6 cells/mL with a 10% serum-containing medium and inoculated into a 24-well plate at 1 mL each. Subsequently, Escherichia coli 055-derived lipopolysaccharides (LPS) were added at 1 μg/mL, and then the samples prepared in (1) (b) above were added at 0.1 mM, followed by culturing at 37° C. for 24 hours or three days. Upon completion of culture, the supernatants were collected and the amounts of IL-6 and IgA were measured by ELISA.

IgA production [4] = experiment: Promoting effect of IgA production (in vitro) <2>; type: cell-based, mouse; settings: spleen lymphocytes of female C57BL/6N mice, 0.03, 0.1 and 0.3 mM, three days at 37° C.
Protocol: as §3, §2
The lymphocytes obtained from the cells for the evaluation test of (2) above were prepared at 5×10^6 cells/mL with a 10% serum-containing medium and inoculated into a 48-well plate at 200 μL each.
To the cells, chemically synthesized cis-S-1-propenycysteine and trans-S-1-propenycysteine, and S-1-propenycysteine (a cis/trans mixture) prepared in Production Example 2 were added at concentrations of 0.03, 0.1, and 0.3 mM, followed by culturing at 37° C. for three days. Subsequently, the amount of IgA produced in the culture supernatants was measured by ELISA.

IgA production [5] = experiment: Promoting effect of IgA production (in vitro) <1>; type: cell-based, mouse; settings: spleen lymphocytes of female C57BL/6N mice, 0.1 mM, three days at 37° C., compared with other sulfur-containing amino acid compounds
Protocol: as §3, §2
The lymphocytes obtained from the cells for the evaluation test of (2) above were prepared at 1×10^6 cells/mL with a 10% serum-containing medium and inoculated into a 24-well plate at 1 mL each, or prepared at 1×10^6 cells/200 μL and inoculated into a 48-well plate at 200 μL each. Subsequently, of the samples prepared in (1) above, those prepared in (1) (a) above were appropriately diluted and added to the 24-well plate so that the final concentration was 4 mg/mL, and those prepared in (1) (b) was added to the 48-well plate at 0.1 mM. After culturing for three days at 37° C., the supernatants were collected and the amount of IgA was measured by ELISA.

IgA production [6] = experiment: Promoting effect on IgA production under LPS stimulation (in vitro) <1>; type: cell-based, mouse; settings: spleen lymphocytes, 1 μg/mL Escherichia coli 055-derived LPS, 0.1 mM, compared with no stimulation
Protocol: as §3, §2, §5

IgA-producing B cells [7] = experiment: Promoting effect of IgA production (in vivo) <3>: IgA-producing B cells in the peritoneal cavity; set-up: species or system mouse; settings: female C57BL/6N mice, oral administration for five days, compared with water administration group
Protocol: as §1
The animals for the evaluation test of (3) above were orally administered with the sample prepared in (1) (b) above for five days. The animals were sacrificed and a laparotomy was performed without breaking the peritoneum. Then, 3 mL of 5% FBS-containing Hank's Balanced Salt Solution was placed in a 5 mL syringe and injected into the peritoneal cavity using a 27G needle. Then, the peritoneum was pressed with fingers to spread the injected solution evenly throughout the peritoneal cavity, followed by collecting the intraperitoneal solution using a 18G needle. The intraperitoneal solution thus collected was centrifuged at 1,500 rpm for five minutes. The resulting supernatant was removed and peritoneal cells were collected. […] Upon completion of treatment, 1×10^4 lymphocytes were analyzed by using a flow cytometer to count the number of IgA-producing B cells which reacted to the anti-mouse CD45 antibody (B220) and the anti-mouse immunoglobulin A antibody.

## CC=CSCC(N)C(=O)O (centres unmarked) [S-1-propenycysteine, S-1-propenylcysteine]
IgA
  amount of IgA in the intestinal lavage fluids (ELISA), FIG. 3: increased
IL-6 production [1]
  IL-6 secretion induced by LPS stimulation (ELISA), FIG. 9: significantly inhibited IL-6 secretion
IgA-producing B cells [2]
  number of IgA-producing B cells in Peyer's patches (flow cytometer), FIG. 4: increased
IL-6 production [3]
  amount of IL-6 secretion induced by LPS stimulation (ELISA), FIG. 7: reduced
IgA production [4]
  amount of IgA produced in culture supernatants (ELISA), FIG. 8: significantly enhanced IgA production
IgA production [5]
  amount of IgA in culture supernatant (ELISA), FIG. 2: promoted IgA production more strongly than other sulfur-containing amino acid compounds
IgA production [6]
  amount of IgA under LPS stimulation (ELISA), FIG. 6: higher promoting effect on IgA production than under no stimulation
IgA-producing B cells [7]
  number of IgA-producing B cells in the peritoneal cavity (flow cytometer), FIG. 5: increased

## C/C=C\SC[C@H](N)C(=O)O [cis-S-1-propenycysteine, cis-S-1-Propenylcysteine]
IgA production [4]
  amount of IgA produced in culture supernatants (ELISA), FIG. 8: virtually did not affect IgA production

## C/C=C/SC[C@H](N)C(=O)O [trans isomer, trans-S-1-Propenylcysteine]
IL-6 production [1]
  IL-6 secretion induced by LPS stimulation (ELISA), FIG. 9: significantly inhibited IL-6 secretion
IgA production [4]
  amount of IgA produced in culture supernatants (ELISA), FIG. 8: significantly enhanced IgA production
